Test results from US8962608B2, “Cycloalkylnitrile pyrazole carboxamides as janus kinase inhibitors” (Merck Sharp & Dohme Corp., priority 2011, dated 2015).

Assays:
[1] = biological target: JAK2 (recombinant purified GST-tagged catalytic domain) (Homo sapiens (Human), UniProt O60674);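 further: biochemical JAK kinase assay with HTRF detection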
[2] = biological target: JAK1 (recombinant purified GST-tagged catalytic domain) (Homo sapiens (Human), UniProt P23458);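 further: biochemical assay with HTRF read-out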
Sequence of JAK1 (recombinant purified GST-tagged catalytic domain) (P23458 875-1153): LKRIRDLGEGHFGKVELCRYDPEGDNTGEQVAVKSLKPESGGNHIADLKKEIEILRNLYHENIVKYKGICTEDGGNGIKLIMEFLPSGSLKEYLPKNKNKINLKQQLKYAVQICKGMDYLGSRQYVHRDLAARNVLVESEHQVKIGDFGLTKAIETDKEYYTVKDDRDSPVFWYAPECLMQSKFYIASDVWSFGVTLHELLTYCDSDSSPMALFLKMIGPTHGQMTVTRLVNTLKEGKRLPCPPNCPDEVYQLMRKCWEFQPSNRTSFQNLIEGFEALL

Sequence of JAK2 (recombinant purified GST-tagged catalytic domain) (O60674 849-1124): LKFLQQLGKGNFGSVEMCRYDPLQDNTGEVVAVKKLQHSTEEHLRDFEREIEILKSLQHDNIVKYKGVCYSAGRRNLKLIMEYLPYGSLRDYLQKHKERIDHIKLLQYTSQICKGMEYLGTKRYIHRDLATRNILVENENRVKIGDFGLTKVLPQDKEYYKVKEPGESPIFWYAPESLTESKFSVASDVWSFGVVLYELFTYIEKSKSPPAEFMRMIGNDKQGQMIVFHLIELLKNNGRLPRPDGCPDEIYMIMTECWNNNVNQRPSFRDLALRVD

Row | Structure (SMILES) | IC50 [1] [nM] | IC50 [2] [nM]
1 | N#C[C@H]1C[C@@H](NCC(F)F)CC[C@@H]1n1cc(C(N)=O)c(Nc2ccc(S(=O)(=O)C(F)F)cc2)n1 (single isomer, unassigned) [Example 28-126, 1-{(1S,2S,4S or 1R,2R,4R )-2-cyano-4-[(2,2-difluoroethyl)amino]cyclohexyl}-3-({4-[(difluoro-methyl)sulfonyl]phenyl}amino)-1H-pyrazole-4-carboxamide] | 5 | 0.5
2 | N#C[C@H]1CCC[C@@H]1n1cc(C(N)=O)c(Nc2ccccc2)n1 (mixture of isomers) [Example 1-2, 1-{[(1S,2S) and (1R,2R)]-2-cyanocyclopentyl]}-3-(phenylamino)-1H-pyrazole-4-carboxamide] | 101 | 8
3 | N#C[C@@H]1CCC[C@@H]1n1cc(C(N)=O)c(Nc2ccccc2)n1 (mixture of isomers) [Example 1-1, 1-{[(1S,2R) and (1R,2S)]-2-cyanocyclopentyl]}-3-(phenylamino)-1H-pyrazole-4-carboxamide] | 696 | 96
4 | CN(C)[C@H]1CC[C@H](C#N)[C@@H](n2cc(C(N)=O)c(Nc3ccc(F)cc3)n2)C1 (mixture of isomers) [Example 6-1, 1-[(1S,2S,5S and 1R,2R,5R)-2-cyano-5-(dimethylamino)cyclohexyl]-3-[(4-fluorophenyl)amino]-1H-pyrazole-4-carboxamide] | > 1500 | 410
5 | CN(C)[C@@H]1CC[C@H](C#N)[C@@H](n2cc(C(N)=O)c(Nc3ccc(F)cc3)n2)C1 (mixture of isomers) [Example 6-2, 1-[(1S,2S,5R and 1R,2R,5S)-2-cyano-5-(dimethylamino)cyclohexyl]-3-[(4-fluorophenyl)amino]-1H-pyrazole-4-carboxamide] | > 1500 | 305
6 | CC(C)(C)OC(=O)NCC1CC[C@@H](C#N)[C@@H](n2cc(C(N)=O)c(Nc3ccc(F)cc3)n2)C1 (mixture of isomers) [Example 11-8, tert-butyl {[(3S,4R) and (3R,4S)]-3-{4-carbamoyl-3-[(4-fluorophenyl)amino]-1H-pyrazol-1-yl}-4-cyanocyclohexyl]methyl}carbamate] | > 1500 | 158
7 | CS(=O)(=O)c1ccc(Nc2nn([C@H]3CCC[C@H]3C#N)cc2C(N)=O)cc1 (mixture of isomers) [Example 1-5, 1-{[(1S,2R) and (1R,2S)]-2-cyanocyclopentyl]}-3-{[4-(methylsulfonyl)phenyl]amino}-1H-pyrazole-4-carboxamide] | 82 | 5
8 | CC1CCC(C#N)C(n2cc(C(N)=O)c(Nc3ccccc3)n2)C1 (stereo not shown) [Example 11-6, 1-(2-cyano-5-methylcyclohexyl)-3-(phenylamino)-1H-pyrazole-4-carboxamide] | 38 | 7
9 | CN[C@H]1CC[C@H](C#N)[C@@H](n2cc(C(N)=O)c(Nc3ccc(F)cc3)n2)C1 (mixture of isomers) [Example 6-5, 1-{[(1S,2S,5S) and (1R,2R,5R)-2-cyano-5-(methylamino)cyclohexyl]-3-[(4-fluorophenyl)amino]-1H-pyrazole-4-carboxamide] | > 1500 | 410
10 | N#CC1CCC2(CC1n1cc(C(N)=O)c(Nc3ccccc3)n1)OCCO2 (stereo not shown) [Example 2-3, 1-(8-cyano-1,4-dioxaspiro[4.5]dec-7-yl)-3-(phenylamino)-1H-pyrazole-4-carboxamide] | 47 | 9
11 | CC(C)(C)OC(=O)NCC1CC[C@H](C#N)[C@@H](n2cc(C(N)=O)c(Nc3ccc(F)cc3)n2)C1 (single isomer, unassigned) [Example 11-10, tert-butyl {[(1S or R,3S,4S) and (1R or S,3R,4R)]-3-{4-carbamoyl-3-[(4-fluorophenyl)amino]-1H-pyrazol-1-yl}-4-cyanocyclohexyl]methyl}carbamate] | 1300 | 110
12 | N#C[C@H]1CC[C@@H](NCc2ccccc2)C[C@@H]1n1cc(C(N)=O)c(Nc2ccc(F)cc2)n1 (mixture of isomers) [Example 6-6, 1-{[(1S,2S,5R) and (1R,2R,5S)]-5-(benzylamino)-2-cyanocyclohexyl}-3-[(4-fluorophenyl)amino]-1H-pyrazole-4-carboxamide] | 170 | 11
13 | CC(C)(C)OC(=O)NCC1CC[C@H](C#N)[C@@H](n2cc(C(N)=O)c(Nc3ccc(F)cc3)n2)C1 (single isomer, unassigned) [Example 11-9, tert-butyl {[(1R or S 3S,4S) and (1S or R, 3R, 4R)]-3-{4-carbamoyl-3-[(4-fluorophenyl)amino]-1H-pyrazol-1-yl}-4-cyanocyclohexyl]methyl}carbamate] | 434 | 21
14 | N#C[C@H]1CC[C@H](NCc2ccccc2)C[C@@H]1n1cc(C(N)=O)c(Nc2ccc(F)cc2)n1 (mixture of isomers) [Example 6-4, 1-{[(1S,2S,5S) and (1R,2R,5R)]-5-(benzylamino)-2-cyanocyclohexyl}-3-[(4-fluorophenyl)amino]-1H-pyrazole-4-carboxamide] | 55 | 4

More lines, now with the values ahead:

Row | IC50 [1] [nM] | IC50 [2] [nM] | Structure (SMILES)
15 | 4 | 0.85 | N#C[C@@H]1CCC2(C[C@@H]1n1cc(C(N)=O)c(Nc3ccccc3)n1)OCCO2 (single isomer, unassigned) [Example 45-2, 1-[(7S,8R or 7R,8S)-8-Cyano-1,4-dioxaspiro[4.5]dec-7-yl]-3-(phenylamino)-1H-pyrazole-4-carboxamide]
16 | 119 | 18 | N#C[C@H]1CCCC[C@@H]1n1cc(C(N)=O)c(Nc2cc(Cl)cc(Cl)c2)n1 (single isomer, unassigned) [Example 17-54, 1-[(1S,2S or 1R, 2R)-2-cyanocyclohexyl]-3-[(3,5-dichlorophenyl)amino]-1H-pyrazole-4-carboxamide]
17 | 14 | 2 | CS(=O)(=O)N[C@H]1CC[C@H](n2cc(C(N)=O)c(Nc3ccc(F)cc3)n2)[C@@H](C#N)C1 (mixture of isomers) [Example 38-1, 1-{(1S,2S,4S and 1R,2R,4R)-2-cyano-4-[(methylsulfonyl)amino]cyclohexyl}-3-[(4-fluorophenyl)amino]-1H-pyrazole-4-carboxamide]
18 | > 1500 | 257 | CC(C)(C)OC(=O)C1CC[C@@H](C#N)[C@@H](n2cc(C(N)=O)c(Nc3ccccc3)n2)C1 (mixture of isomers) [Example 12-2, (3S,4R and 3R,4S)-tert-butyl 3-(4-carbamoyl-3-(phenylamino)-1H-pyrazol-1-yl)-4-cyanocyclohexanecarboxylate]
19 | 11 | 4 | C[C@]1(C#N)CCCC[C@@H]1n1cc(C(N)=O)c(Nc2ccc(F)cc2)n1 (mixture of isomers) [Example 19-2, 1-((1S,2S and 1R,2R)-2-cyano-2-methylcyclohexyl)-3-((4-fluorophenyl)amino)-1H-pyrazole-4-carboxamide]
20 | 67 | 4 | N#C[C@H]1C[C@H](N2CCC2)CC[C@@H]1n1cc(C(N)=O)c(Nc2ccc(OC(F)F)nc2)n1 (single isomer, unassigned) [Example 28-2, 1-[(1S,2S,4R or 1R,2R,4S)-4-(azetidin-1-yl)-2-cyanocyclohexyl]-3-{[6-(difluoromethoxy)pyridin-3-yl]amino}-1H-pyrazole-4-carboxamide]
21 | 235 | 44 | N#C[C@@H]1CCC2(C[C@H]1n1cc(C(N)=O)c(Nc3ccccc3)n1)OCCO2 (single isomer, unassigned) [Example 45-1, 1-[(7R,8R or 7S,8S)-8-Cyano-1,4-dioxaspiro[4.5]dec-7-yl]-3-(phenylamino)-1H-pyrazole-4-carboxamide]
22 | 28 | 4 | N#C[C@H]1CC(F)CC[C@@H]1n1cc(C(N)=O)c(Nc2ccccc2)n1 (mixture of isomers) [Example 22-1, 1-[(1S,2S and 1R,2R)-2-Cyano-4-fluorocyclohexyl]-3-(phenylamino)-1H-pyrazole-4-carboxamide]
23 | 45 | 6 | CC1(C)CN(C(=O)[C@H]2CC[C@H](n3cc(C(N)=O)c(Nc4ccc(Cl)cc4)n3)[C@@H](C#N)C2)C1 (single isomer, unassigned) [Example 35-1, 3-(4-chlorophenylamino)-1-((1S,2S,4S or 1R,2R,4R)-2-cyano-4-(3,3-dimethylazetidine-1-carbonyl)cyclohexyl)-1H-pyrazole-4-carboxamide]
24 | 87 | 5 | N#C[C@H]1C[C@@H](N2CCC2)CC[C@@H]1n1cc(C(N)=O)c(Nc2ccc(OC(F)F)nc2)n1 (single isomer, unassigned) [Example 28-3, 1-[(1S,2S,4S or 1R,2R,4R)-4-(azetidin-1-yl)-2-cyanocyclohexyl]-3-{[6-(difluoromethoxy)pyridin-3-yl]amino}-1H-pyrazole-4-carboxamide]
25 | 34 | 1 | CC1(C)C[N+](C)([C@H]2CC[C@H](n3cc(C(N)=O)c(Nc4ccc(Cl)cc4)n3)[C@@H](C#N)C2)C1 [Example 31-4, 1-[(1S,3S,4S)-4-{4-carbamoyl-3-[(4-chlorophenyl)amino]-1H-pyrazol-1-yl}-3-cyanocyclohexyl]-1,3,3-trimethylazetidinium]
26 | 50 | 7 | CC(C)(C)OC(=O)C1CC[C@H](C#N)[C@@H](n2cc(C(N)=O)c(Nc3ccccc3)n2)C1 (mixture of isomers) [Example 12-1, (3S,4S and 3R,4R)-tert-butyl 3-(4-carbamoyl-3-(phenylamino)-1H-pyrazol-1-yl)-4-cyanocyclohexanecarboxylate]
